From patent US9700547B2, “Use of 6-hydroxy-2-pyridones and derivatives thereof for preparing a pharmaceutical composition that acts by inhibiting the human uridine phosphorylase enzyme” (UNIÃO BRASILEIRA DE EDUCAÇÃO E ASSISTÊNCIA, MANTENEDORA DA …, priority 2013, dated 2017)

Key:
hUP1-Pi = hUP1-Pi (Homo sapiens, UniProt Q16831); assay: isothermal titration microcalorimetry (ITC), enzyme complexed with substrate Pi; type: binding
Experimental: (§1) For determining the thermodynamic parameters (enthalpy variation—ΔH, entropy variation—ΔS, and free energy variation of Gibbs—ΔG) were performed compounds binding essays to the enzyme in different conditions: free enzyme, complexed enzyme with the substrate Pi, and the complexed enzyme with the product ribose-1-phosphate (R1P). For such analyses, it was used isothermal titration microcalorimetry (ITC) where the equipment monitors the difference of transferred heat, between the reference cell and the sample cell, when bindings are formed or broken during the binding process. The data analysis achieved was performed through the model One Set of Sites and the determination of ΔG and the dissociation constant (KD) were through the equations (IV) and (V) below, respectively: ΔG=ΔH−TΔS (IV) KD=1/Ka (V)

hUP1-R1P = hUP1-R1P (Homo sapiens, UniProt Q16831); assay: isothermal titration microcalorimetry (ITC), enzyme complexed with product ribose-1-phosphate; type: binding
Sequence of hUP1-R1P (Q16831 whole entry): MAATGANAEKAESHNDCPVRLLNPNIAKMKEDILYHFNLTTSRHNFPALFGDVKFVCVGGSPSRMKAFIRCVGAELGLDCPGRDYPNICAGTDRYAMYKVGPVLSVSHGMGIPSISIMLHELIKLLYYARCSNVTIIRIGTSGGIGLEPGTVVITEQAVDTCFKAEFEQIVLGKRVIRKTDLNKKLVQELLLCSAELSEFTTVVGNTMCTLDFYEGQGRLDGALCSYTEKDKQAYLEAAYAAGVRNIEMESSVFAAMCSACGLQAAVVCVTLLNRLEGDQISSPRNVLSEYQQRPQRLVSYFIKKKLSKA
Experimental: as §1

hUP1 = hUP1 (Homo sapiens, UniProt Q16831); assay: isothermal titration microcalorimetry (ITC), free enzyme; type: binding
Sequence of hUP1 (Q16831 whole entry): as above
Experimental: as §1

[1] = target: T1, Human Phosphorylase Uridine 1 (hUP1) (Homo sapiens, UniProt Q16831); conditions: literature value, said to be confirmed by own experiments; read-out: constant inhibition for uridine described on the literature; cited from earlier work
T1 sequence (Q16831 whole entry): as above

[2] = target: T1, Human Phosphorylase Uridine 1 (hUP1); assay: Ki and inhibition type from substrate saturation curves, double-reciprocal analysis; type: biochemical; conditions: for Inhibiting type for phosphate: substrate Pi; for Inhibition type for uridine: substrate uridine
Experimental: (§2) The enzymatic activity of the hUP1 is performed through the enzymatic essay using one spectrophotometer UV/visible where the absorbance reduction of uridine in 280 nm, for 1 min and at 37° C. was monitored.
For determining Ki for the selected inhibitors, we performed saturation curves where the concentration of one of the substrates is fixed next to the Km and the concentration of another, varied until the saturation in fixed-varying concentrations of each one of the inhibitors.
(I) v=VA/[Ka(1+I/Kii)+A(1+Kis)] (II) v=VA/[A(1+I/Kis)+Ka] (III)

plasma uridine = assay: uridine concentration in animals' plasma by HPLC (mucositis model); type: in vivo, female Wistar mouse; conditions: compound orally, either 50 mg/kg or 150 mg/kg
Experimental: (§3) The test compound was administrated via oral, 30 minutes before administrating the chemotherapeutic 5-FU that was administrated via intraperitoneal. This treatment was followed for 5 days with once a day administrations. In the 5th treatment day, the animals were euthanized using one inhalational anesthetic (isoflurane) and the initial portion of the intestine (corresponding to jejunum and ileus) was collected for myeloperoxidase analysis (MPO) and histological analysis of the tissue, as well blood collect for quantification analysis of the uridine in the plasma. The animals were also followed-up regarding weight loss and diarrhea.
The determination of the uridine concentration in the animals' plasma as performed by HPLC, using as mobile phase acetic acid 0.1%. First, it was made a calibration curve using commercial uridine as standard (Sigma) in the concentrations of 0.625-1.25-2.5-5.0-10.0-20.0 μM in mice plasma to keep the same matrix where the samples ones are. After the calibration curve, the plasma samples were analyzed of each group and was one positive result was achieved. As was expected, there was an increase of 4.4 times in the uridine concentration in the animals' plasma that received the compound orally, either in the dose of 50 mg/kg or in the dose of 150 mg/kg (FIGS. 5A and 5B). […]

[3] = tested on: myeloperoxidase (MPO) in initial portion of the intestine; assay: MPO analysis in repeated mucositis model; type: in vivo; conditions: 50 mg/kg orally of 8-8 h, starting 2 days before 5-FU and 2 further days with 5-FU
Experimental: The last in vivo analysis was regarding the MPO. The MPO is a primary answer of inflammation, present in neutrophils, and for that it was analyzed which is the best day of euthanasia to check this primary answer. The treatment schema lasted 5 days, where the animals were divided into 2 groups with 10 animals in each (Group Saline and Group 5-FU). The 5-FU (50 mg/kg) was administrated using the intraperitoneal via, as well the Saline. The animals were put into euthanasia in 24 h, 48 h, 72 h, 96 h and 120 h after the administration (days 1-5) and the initial portion of the intestine was collected. It was verified that the best day for MPO quantification would be day 2 (48 h after 5-FU administration), such as represented in the FIG. 6, in which the statistical analysis was performed though one-way ANOVA followed by Bonferroni test. The lines represent the standard error while each column represents the mean of two animals of each group. *Significant difference regarding group Saline (*p<0.05).
The first experiment of mucositis was repeated, with 3 groups having 5 animals in each (Group Saline+Saline, Group Saline+5-FU and Group Compound c3+5-FU). […] The animals were euthanized with isoflurane and the initial portion of the intestine was analyzed. […]

[4] = tested on: intestinal mucositis caused by 5-FU; assay: intestinal mucositis model caused by 5-FU (weight, diarrhea, villus histology); type: in vivo, female Wistar mouse; conditions: 5 days
Experimental: as §3, with “The compound c3 was tested in in vivo for evaluating its protection regarding intestinal mucositis caused by 5-FU. The mucositis model was developed in female Wistar mouse (180-200 g) and the animals were divided into 5 groups with 4 animals in each group: Group 1: Saline+Saline Group 2: Compound c3 (150 mg/kg)+saline Group 3: Saline+5-FU (50 mg/kg) Group 4: Compound c3 (50 mg/kg)+5-FU (50 mg/kg) Group 5: Compound c3 (150 mg/kg)+5-FU (50 mg/kg) The test” for “The test”

[5] = target: T1, Human Phosphorylase Uridine 1 (hUP1); assay: hUP1 enzymatic assay, inhibition at 1 μM (UV absorbance of uridine at 280 nm); type: biochemical; conditions: 1 μM compound, 37° C.
Experimental: as §2
For determining which inhibitors would be selected for determining the inhibition constant (Ki), one cut point of 1 μM was stipulated, where only those compounds that would inhibit more than 60% of the initial activity of the enzyme would be selected for this type of analysis (Table 1). From all compounds tested, 7 molecules had its inhibition above 60% with the concentration of 1 μM (Compounds c1, c2, c3, c4, c6, c12, and c13). All essays described on this patent application were performed for these compounds and for benzil acyclo uridine (BAU), in order to perform a direct comparison of the results achieved with the better in vitro inhibitor of the hUP1 described (standard).

[6] = c3 50 or 150 mg/kg oral 30 min before 5-FU 50 mg/kg intraperitoneal, once a day

Sequence of hUP1-Pi (Q16831 whole entry): as above

Structure (SMILES)	Kd (hUP1-Pi) [nM]	ΔG° (hUP1-Pi) [kcal/mol]	ΔH° (hUP1-Pi) [kcal/mol]	−TΔS (kcal/mol/deg) (hUP1-Pi)	Kd (hUP1-R1P; hUP1-R1P 50 μM) [nM]	ΔG° (hUP1-R1P; hUP1-R1P 50 μM) [kcal/mol]	ΔH° (hUP1-R1P; hUP1-R1P 50 μM) [kcal/mol]	Kd (hUP1-R1P; hUP1-R1P 150 μM) [nM]	ΔG° (hUP1-R1P; hUP1-R1P 150 μM) [kcal/mol]	ΔH° (hUP1-R1P; hUP1-R1P 150 μM) [kcal/mol]	Inhibiting type for phosphate [2]	Inhibition type for uridine [2]	further results
O=c1[nH]c(=O)n(COCCO)cc1Cc1ccccc1 [BAU, benzil acyclo uridine, reference compound]	1400 ± 239	-8.2 ± 1.4	-13 ± 0.3	4.6 ± 0.8	1200 ± 244	-8.2 ± 1.7	-12 ± 0.3	6600 ± 898	-7.3 ± 1.0	-20 ± 0.7	Not competitive	Competitive	Kd (hUP1): 1200 ± 150 nM; ΔG° (hUP1): -8.4 ± 1.0 kcal/mol; ΔH° (hUP1): -10 ± 0.1 kcal/mol; −TΔS (kcal/mol/deg) (hUP1): 1.5 ± 0.2 kcal/mol/deg; Ki [1]: 100 nM
Cc1cc(O)[nH]c(=O)c1C#N [Compound c3]	12000 ± 1400	-6.9 ± 0.8	-19 ± 1.3	12 ± 1.4	1400 ± 341	-8.3 ± 2.0	-31 ± 1.2	40	-9.8 ± 1.4	-21 ± 0.1	Uncompetitive	Not competitive	increase in the uridine concentration in the animals' plasma (plasma uridine): 4.4 times; −TΔS (kcal/mol/deg) (hUP1-R1P; hUP1-R1P 50 μM): 22 ± 5.4 kcal/mol; −TΔS (kcal/mol/deg) (hUP1-R1P; hUP1-R1P 150 μM): 11 ± 1.5 kcal/mol; Kd (hUP1-R1P; hUP1-R1P 200 μM): 20 nM; ΔG° (hUP1-R1P; hUP1-R1P 200 μM): -11 ± 1.3 kcal/mol; ΔH° (hUP1-R1P; hUP1-R1P 200 μM): -22 ± 0.1 kcal/mol; −TΔS (kcal/mol/deg) (hUP1-R1P; hUP1-R1P 200 μM): 11 ± 1.3 kcal/mol; MPO, primary inflammation process [3]: not able to revert the primary inflammation process; intestinal villus size (histological analysis) ([4]; both tested doses (50 and 150 mg/kg oral) + 5-FU 50 mg/kg intraperitoneal): statistically equal to the group Saline and different from the group 5-FU; protection from diarrhea caused by 5-FU [4, 6]: not able to avoid these side effects; protection from weight loss caused by 5-FU [4, 6]: not able to avoid these side effects; Inhibition with 1 μM (%) [5]: 70%; inhibition at 1 µM [5]: > 60%
